Reference: ChEMBL document CHEMBL1157883, “Synthesis and biological evaluation of novel 2-arylalkylthio-4-amino-6-benzyl pyrimidines as potent HIV-1 non-nucleoside reverse transcriptase inhibitors” (Bioorg Med Chem Lett, 2010)
Activity calls are given as the source filed them. The calls are words filed in the database; no cut-off is given here.

Experiments:
[1] = target: Human immunodeficiency virus type 1 reverse transcriptase (Human immunodeficiency virus 1) (UniProt Q72547); assay: Inhibition of biotin-dUTP labeled HIV-1 reverse transcriptase at 100 uM after 30 mins colorimetric streptavidin alkaline phosphatase reporter system
[2] = target: Human immunodeficiency virus type 1 reverse transcriptase (Human immunodeficiency virus 1, UniProt Q72547); assay: Inhibition of biotin-dUTP labeled HIV-1 reverse transcriptase after 30 mins colorimetric streptavidin alkaline phosphatase reporter system
[3] = target: Human immunodeficiency virus type 1 reverse transcriptase (Human immunodeficiency virus 1) (UniProt Q72547); assay: Inhibition of HIV1 reverse transcriptase
[4] = test system: Human immunodeficiency virus 1; assay: Antiviral activity against HIV1 in cell based assay; format: functional, organism-based
[5] = test system: Human immunodeficiency virus 1; assay: Antiviral activity against pluri-resistant HIV1 IRLL98 in cell based assay; format: functional, organism-based; settings: Human immunodeficiency virus 1, IRLL98

CC(Sc1nc(Cl)cc(Cc2ccccc2)n1)c1ccccc1 (stereo unspecified)
inhibition [1]: inactive

Clc1cc(Cc2ccccc2)nc(SCCCc2ccccc2)n1
inhibition [1]: inactive

O=c1cc(Cc2ccccc2)nc(SCc2ccccc2)[nH]1
inhibition [1]: inactive

CC(Sc1nc(N)cc(Cc2ccccc2)n1)c1ccccc1 (stereo unspecified)
IC50 [2]: 63900 nM | ID50 [3]: 26 nM | EC50 [4]: < 0.14 nM | EC50 [5]: 0.22 nM

COc1cccc(CSc2nc(N)cc(Cc3ccccc3)n2)c1
IC50 [2]: > 100000 nM | ID50 [3]: 26 nM | EC50 [4]: < 0.14 nM | EC50 [5]: 0.22 nM

Nc1cc(Cc2ccccc2)nc(SCCc2ccccc2)n1
inhibition [1]: inactive | EC50 [4]: < 0.14 nM | EC50 [5]: 0.22 nM

Nc1cc(Cc2ccccc2)nc(SCc2ccccc2)n1
IC50 [2]: > 100000 nM | ID50 [3]: 26 nM | EC50 [4]: < 0.14 nM | EC50 [5]: 0.22 nM

Clc1cc(Cc2ccccc2)nc(SCc2ccccc2)n1
IC50 [2]: > 100000 nM

COc1cccc(CSc2nc(Cl)cc(Cc3ccccc3)n2)c1
inhibition [1]: inactive

Cc1ccccc1CSc1nc(Cl)cc(Cc2ccccc2)n1
inhibition [1]: inactive

Nc1cc(Cc2ccccc2)nc(SCCCc2ccccc2)n1
inhibition [1]: inactive | EC50 [4]: < 0.14 nM | EC50 [5]: 0.22 nM

Clc1cc(Cc2ccccc2)nc(SCc2ccc3ccccc3c2)n1
inhibition [1]: inactive

Cc1cccc(CSc2nc(Cl)cc(Cc3ccccc3)n2)c1
IC50 [2]: 90800 nM

Nc1cc(Cc2ccccc2)nc(SCc2ccc3ccccc3c2)n1
IC50 [2]: 17100 nM | ID50 [3]: 26 nM | EC50 [4]: < 0.14 nM | EC50 [5]: 0.22 nM

CC(C)(C)c1ccc(CSc2nc(N)cc(Cc3ccccc3)n2)cc1
inhibition [1]: inactive | ID50 [3]: 26 nM | EC50 [4]: < 0.14 nM | EC50 [5]: 0.22 nM

CC(C)(C)c1ccc(CSc2nc(Cl)cc(Cc3ccccc3)n2)cc1
inhibition [1]: inactive

Clc1cc(Cc2ccccc2)nc(SCCc2ccccc2)n1
inhibition [1]: inactive

CC(C)(C)c1ccc(CSc2nc(Cc3ccccc3)cc(=O)[nH]2)cc1
inhibition [1]: inactive

O=c1cc(Cc2ccccc2)nc(SCc2ccc3ccccc3c2)[nH]1
inhibition [1]: inactive

Cc1ccccc1CSc1nc(N)cc(Cc2ccccc2)n1
IC50 [2]: 29900 nM | ID50 [3]: 26 nM | EC50 [4]: < 0.14 nM | EC50 [5]: 0.22 nM

Cc1cccc(CSc2nc(N)cc(Cc3ccccc3)n2)c1
IC50 [2]: 18000 nM | ID50 [3]: 26 nM | EC50 [4]: < 0.14 nM | EC50 [5]: 0.22 nM
